In one assay the target is T1, cruzain (Trypanosoma cruzi, UniProt P25779).
T1 construct: made in house; host or cells: Escherichia coli (strain M15)
In words: Cruzain enzyme inhibition assay (cleavage of fluorogenic substrate Z-FR-AMC). It is filed as biochemical. Particulars: for inhibition at 100 µM: compound 100 µM, mean of three measures; for Mechanism of cruzain inhibition (Lineweaver-Burk plots): eight substrate and four inhibitor concentrations. Put shortly: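 Recombinant C-terminally truncated cruzain, activated from pro-enzyme, assayed in 0.1 M sodium acetate pH 5.5 with 5 mM DTT and 0.01% Triton X-100 (also run at 0 and 0.1%) at 30°C. Z-FR-AMC cleavage followed 5 min (ex 355/em 460 nm); IC50 from initial rates versus DMSO, ≥6 concentrations in triplicate; single-dose at 100 μM.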

Assay [1] has as its system T. cruzi intracellular amastigotes. In words: Assay against T. cruzi intracellular amastigotes (Tulahuen lacZ strain in HFF-1 fibroblasts). It is filed as cell-based, Trypanosoma cruzi. Conditions: for IC50: Trypanosoma cruzi. How it is done: Biological assays against T. cruzi intracellular amastigotes were performed as reported previously using the T. cruzi Tulahuen strain, which is genetically engineered to express the E. coli β-galactosidase gene lacZ ([Buckner et al., 1996]). β-Galactosidase catalyzes a colorimetric reaction with chlorophenol red β-D-galactopyranoside (CPRG, Sigma Chemical Co., St. Louis, MO) as the substrate. The assays were conducted in 96-well tissue culture plates, and the compounds to be tested were prepared in 100% DMSO. Epimastigotes were maintained in liver infusion tryptone (LIT) enriched with 10% fetal calf serum (FCS), streptomycin, and penicillin at 28°C. Epimastigotes were converted to trypomastigotes by incubation in Grace’s insect medium (Sigma–Aldrich, St. Louis, MO) enriched with 10% FCS at 28°C. Human HFF-1 fibroblasts were seeded at 2 × 10^3/well in 80 μl of RPMI 1640 without phenol red and incubated overnight at 37°C and 5% CO2. Trypomastigotes were seeded at 1.0 × 10^4/well in 20 μl of RPMI 1640, and the plates were incubated at 37°C and 5% CO2. The next day, the synthesized compounds were added (50 μl) in 3-fold serial dilutions at concentrations ranging from 0.4 to 300 μM, and the plates were incubated at 37°C and 5% CO2. Each compound concentration was assayed in triplicate. After 120 h, 50 μl of chlorophenol red β-D-galactopyranoside (CPRG, Sigma–Aldrich) and IGEPAL CA-630 (Sigma–Aldrich) at a final concentration of 0.1% were added. The absorbance was measured at a wavelength of 570 nm in an automated microplate reader. The data were transferred to SigmaPlot 10.0 (Systat Software Inc., Erkrath, Germany) to determine the IC50 values. Benznidazole (BZ, Sigma–Aldrich) was used as a positive control, and untreated wells (100% parasite growth) were used as negative controls in all plates. All compounds were tested in three independent assays.

The mark [2] stands for this setting: 1.5 nM cruzain, 5.0 µM Z-FR-AMC, mean ± SD of 2–3 assays, read-out: IC50 (µM) against cruzain.
The mark [3] stands for this setting: HFF-1, 120 h, Table 3, 120 h, mean ± SD of three assays.
Where [4] appears, read: HFF-1, Table 4, mean ± SD of three assays.
Where [5] appears, read: Table S2, substrate 2.5 µM, read-out: IC50 (µM) cruzain at [S] 2.5 µM.
Setting [6] is: Table S2, substrate 5 µM, read-out: IC50 (µM) cruzain at [S] 5 µM.
Setting [7] is: Table S2, substrate 10 µM, read-out: IC50 (µM) cruzain at [S] 10 µM.
The mark [8] stands for this setting: Table S2, substrate 15 µM, read-out: IC50 (µM) cruzain at [S] 15 µM.
Where [9] appears, read: Table S2, substrate 20 µM, read-out: IC50 (µM) cruzain at [S] 20 µM.
[10] abbreviates: Table S2, substrate 40 µM, read-out: IC50 (µM) cruzain at [S] 40 µM.

Where two headings read alike, the source gives them in different places.

T1 sequence (P25779 123-337 limits assumed): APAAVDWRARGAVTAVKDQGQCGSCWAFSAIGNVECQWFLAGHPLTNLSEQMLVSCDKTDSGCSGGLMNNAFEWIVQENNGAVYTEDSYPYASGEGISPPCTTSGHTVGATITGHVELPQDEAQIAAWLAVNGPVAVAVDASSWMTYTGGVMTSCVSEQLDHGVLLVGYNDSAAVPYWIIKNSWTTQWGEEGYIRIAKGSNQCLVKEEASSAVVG

With `O=C(COc1ccc2ccc(O)cc2c1)NCCc1nc2ccccc2[nH]1` [Compound 11], the half-maximal inhibitory concentration (IC50) stood at 2.7 ± 0.7 µM at cruzain (setting [2]) and 2800 ± 600 nM in assay [1] (setting [3]). Moreover, the inhibition at 100 µM at cruzain was 96%.
`O=C(COc1ccc(NC(=O)CCCO)cc1)NCCc1nc2ccccc2[nH]1` [Compound 5] displayed an inhibition at 100 µM against cruzain of 87%. Also, the IC50 in assay [1] (setting [4]) was ~50000 nM.
Consider `C=CCCn1c(CCNC(=O)COc2ccccc2)nc2ccccc21` [Compound 27], for which the 50% inhibitory concentration (IC50) on cruzain (setting [2]) came to 13.7 ± 1.4 µM; on cruzain (setting [5]), 12.4 ± 2.2 µM; on cruzain (setting [6]) it was 7.5 ± 1.2 µM; at cruzain (setting [7]), 14.7 ± 1.8 µM; on cruzain (setting [8]), 11.2 ± 1.5 µM; at cruzain (setting [9]), 10.2 ± 1.5 µM. Besides, the IC50 on cruzain (setting [10]) worked out at 8.9 ± 3.1 µM; in assay [1] (setting [3]), 6900 ± 2200 nM; in assay [1] (setting [4]) it was 6900 ± 2200 nM. Also, 100 µM produced 79% inhibition on cruzain. In addition, the “Mechanism of cruzain inhibition (Lineweaver-Burk plots)” value (“Mechanism of cruzain inhibition” for short) on cruzain is “noncompetitive”.
With `O=C(COc1ccccc1)NCCc1nc2ccccc2n1CCOc1ccccc1` [Compound 20], the half-inhibitory concentration (IC50) on cruzain (setting [2]) is 1.04 ± 0.7 µM; on cruzain (setting [5]), 0.5 ± 1.3 µM; at cruzain (setting [6]), 0.4 ± 1.2 µM; at cruzain (setting [7]) it was 1 ± 1.5 µM; at cruzain (setting [8]) it was 0.8 ± 1.7 µM; at cruzain (setting [9]) it was 0.3 µM. Moreover, the half-maximal inhibitory concentration (IC50) at cruzain (setting [10]) is 0.5 ± 1.2 µM; in assay [1] (setting [3]), 2040 ± 600 nM; in assay [1] (setting [4]) it was 2040 ± 600 nM. Further, on cruzain (Table S1, 0% Triton X-100), the “% cruzain inhibition, 0% Triton” value is given as 95.2 ± 0.6%. In addition, the “% cruzain inhibition, 0.01% Triton” value at cruzain (Table S1, 0.01% Triton X-100) was determined as 95.9 ± 1.7%. For the same compound, at cruzain (Table S1, 0.1% Triton X-100), the “% cruzain inhibition, 0.1% Triton” value is recorded as 96.0 ± 1.1%. Also, on cruzain, the inhibition at 100 µM is 92%. Also, the “Mechanism of cruzain inhibition” value on cruzain is listed as “noncompetitive”.
For the compound `O=C(COc1ccccc1)NCCc1nc2ccccc2n1Cc1ccccc1` [Compound 26], the IC50 was found to be 1.1 ± 0.2 µM on cruzain (setting [2]); 1.6 ± 0.1 µM on cruzain (setting [5]); 1.8 ± 0.1 µM on cruzain (setting [6]); 1.9 ± 0.2 µM at cruzain (setting [7]); 1.4 ± 0.5 µM at cruzain (setting [8]); 2.4 ± 0.9 µM on cruzain (setting [9]). The values for the IC50 (on cruzain (setting [10]); in assay [1] (setting [3]); in assay [1] (setting [4])) were 1.2 ± 0.5 µM, 7400 ± 2000 nM and 7400 ± 2000 nM, respectively. For the same compound, at cruzain, at 100 µM the inhibition was 77%. In addition, the “Mechanism of cruzain inhibition” value at cruzain was “noncompetitive”.
On to `COc1ccc2cc(OCC(=O)NCCc3nc4ccccc4[nH]3)ccc2c1` [Compound 12], for which the IC50 on cruzain (setting [2]) was determined as 2.3 ± 0.6 µM; in assay [1] (setting [3]) it was 16600 ± 2400 nM. The compound further had an inhibition at 100 µM against cruzain of 100%.
Consider `Cn1c(CCNC(=O)COc2ccccc2)nc2ccccc21` [Compound 25], for which the IC50 at cruzain (setting [2]) was determined as 8.6 ± 1.7 µM. Moreover, on cruzain, the inhibition at 100 µM was 87% and the “Mechanism of cruzain inhibition” value was “competitive”. Besides, the “IC50 T. cruzi (μM)” value in assay [1] (Table 3, 120 h, mean ± SD of three assays) was “inactive”. In assay [1] (setting [3]), the IC50 is ~100000 nM.
Turning to `O=C(COc1cccc([N+](=O)[O-])c1)NCCc1nc2ccccc2[nH]1` [Compound 8], the IC50 at cruzain (setting [2]) turned out to be 13.5 ± 2.6 µM; in assay [1] (setting [3]), 3500 ± 700 nM; in assay [1] (setting [4]), 3500 ± 700 nM. This compound registered an inhibition at 100 µM against cruzain of 83%.

The IC50 is the concentration that inhibits the measured activity by half. For orientation: inhibition means how much of the control response was suppressed.

Source of the values: paper PMC8767159, “Multiparameter Optimization of Trypanocidal Cruzain Inhibitors With In Vivo Activity and Favorable Pharmacokinetics” (Frontiers in Pharmacology, 2022).
